The results in this text go back to publication PMC4552634, “A New Set of Chemical Starting Points with Plasmodium falciparum Transmission-Blocking Potential for Antimalarial Drug Discovery” (PLoS ONE, 2015).

Molecules are shown by their SMILES.

The subject of the first assay is P. falciparum stage V gametocytes. The assay is described as follows: Gametocytocidal ATP bioluminescence assay (single point 5 μM and 1 μM, dose-response). The conditions noted are these: P. falciparum gametocytes, 5 μM single concentration, 48 h, decrease of ATP level (S1 Table). It counts as cell-based, Plasmodium falciparum.
Method: Purified stage IV-V gametocytes were obtained as previously described [10]. Single point ATP bioluminescence assay and dose–response of positive hits was determined in accordance with the previously published protocol [10].
Usually % Inhibition stands for the change of the read-out against control, counted positive when it falls. As to `OC(CN1CCN(c2cccc(Cl)c2)CC1)C(c1ccccc1)c1ccccc1` (stereo not drawn) [TCMDC-123456], the “% Inhibition” value was found to be 0.238%.
Same read-out and setting: the same measure for `C1=C(c2c[nH]c3ccccc23)CCN(Cc2ccccc2)C1` [TCMDC-123457]: -71%; for `N=C(N)c1ccc(-c2cc3ccc(C(=N)N)cc3[nH]2)cc1` [TCMDC-123458]: 53%.
The same measure, in the same setting: for `Clc1ccc(-c2nc3ccc(-c4ccc5nc(-c6ccc(Cl)cc6)[nH]c5c4)cc3[nH]2)cc1` [TCMDC-123460] the value was 1.65%.
Same read-out and setting: for `Clc1ccc2c(NCCc3ccccn3)ccnc2c1` [TCMDC-123461] the value was 8%; for `N#Cc1c(N2CCN(c3ccc(F)cc3)CC2)nc(N)c2c(N)nc3c(c12)CC(=O)N3C1CC1` [TCMDC-124490], 44%.
As for `CN(CC(=O)Nc1ccc(F)c(F)c1F)c1ncnc2sc(-c3ccccc3)cc12` [TCMDC-124491], the “% Inhibition” value was found to be 23%.
With `Cc1ccnc2nc(C(=O)Nc3cc(C(F)(F)F)ccc3N3CCCCC3)nn12` [TCMDC-124492], the “% Inhibition” value was -24%.
On the same count and under the same terms, for `CC(=O)c1c(C)[nH]c(C(=O)Nc2ccc(-c3nc4ccc(C)cc4s3)cc2)c1C` [TCMDC-124493] the value was 55%; for `CC1CCN(C(=O)C(Cc2c[nH]c3ccccc23)NS(=O)(=O)c2ccc(Cl)cc2)CC1` (stereo not drawn) [TCMDC-124494], 54%.
On to `CC(CN1CCN(CC(c2ccc(F)cc2)N2CCN(C)CC2)CC1)C(=O)c1ccc(O)cc1.O=C(O)/C=C\C(=O)O` (stereo not drawn) [TCMDC-125496], for which the “% Inhibition” value came out at 30%.
Still for that read-out and setting: for `COc1ccc(Cl)cc1NC(=O)Nc1cc(C)nc2ccccc12` [TCMDC-125497] the value was -50%; for `O=C1C(c2ccccc2)=C(Nc2cccc(OC(F)(F)C(F)F)c2)c2ccccc21` [TCMDC-125498], 66%.
Still for that read-out and setting: for `Cc1ccc(Oc2ncccc2C(=O)Nc2cccc3cccnc23)c(C)c1` [TCMDC-125499] the value was -13%; for `COc1ccc(NC2=C(c3ccccc3)C(=O)c3ccccc32)cn1` [TCMDC-125501], 37%.
Still for that read-out and setting: for `COc1cc2nc(C)nc(Nc3ccc(Cc4ccccc4)cc3)c2cc1OC` [TCMDC-131941] the value was 1.46%; for `Nc1nc(N)c2c(ccc3ccccc32)n1` [TCMDC-131942], 19%; for `Nc1nc(N)c2c(Sc3ccccc3)cccc2n1` [TCMDC-131943], 9%.
Turning to `COc1cc2ncnc(Nc3ccc(OCc4ccccc4)c(I)c3)c2cc1OC` [TCMDC-131944], the “% Inhibition” value is -25%.
The same measure, in the same setting: for `Ic1cc(Nc2ncnc3ccsc23)ccc1OCc1ccccc1` [TCMDC-131945] the value was 8%; for `Cc1cccc(CN2CCC(Oc3ccc(NC(=O)c4cccs4)cc3Cl)CC2)n1` [TCMDC-133964], 24%.
Consider `Cc1cc(NC(=O)c2ccco2)ccc1OC1CCN(Cc2ccccc2)CC1` [TCMDC-133965], for which the “% Inhibition” value is listed as 12%.
On the same count and under the same terms, for `O=C(Nc1ccc(OC2CCN(Cc3ccccc3)CC2)c(Cl)c1)c1ccco1` [TCMDC-133966] the value was 63%; for `O=C(Nc1ccc(OC2CCN(Cc3ccccc3)CC2)c(Cl)c1)c1ccc(F)cc1` [TCMDC-133967], 19%.
On the same count and under the same terms, the same measure for `Cc1cc(NC(=O)c2cccs2)ccc1OC1CCN(Cc2ccccc2)C1` (stereo not drawn) [TCMDC-133968]: -2.76%.
Turning to `CN(c1cc(NC(=O)c2cccs2)ccn1)C1CCN(Cc2cccc(C#N)c2)CC1` [TCMDC-134970], the “% Inhibition” value is 40%.
Turning to `CC(=O)Nc1ccc(CN2CCC(N(C)c3cc(NC(=O)c4cccs4)ccn3)CC2)cc1` [TCMDC-134971], the “% Inhibition” value was -7%.
For `CN(Cc1cccc(C#N)c1)C1CCN(c2cc(NC(=O)c3cccc(F)c3)ccn2)CC1` [TCMDC-134972], the “% Inhibition” value is 21%.
On the same count and under the same terms, for `Cc1cccc(C(=O)Nc2ccnc(N3CCC(N(C)Cc4cccc(C#N)c4)CC3)c2)c1` [TCMDC-134973] the value was -4.57%.
Turning to `CN(Cc1cccc(C#N)c1)C1CCN(c2cc(NC(=O)c3ccc(F)cc3)ccn2)CC1` [TCMDC-134974], the “% Inhibition” value is given as -6%.
Same read-out and setting: for `Cc1cccc(CN2CCCN(Cc3cccc(C(=O)Nc4ccc(C(C)(C)C)cc4)c3)CC2)c1` [TCMDC-135984] the value was -91%.
The same measure, in the same setting: the same measure for `CC(C)(C)c1ccc(NC(=O)c2cccc(CN3CCCN(Cc4ccc(F)cc4)CC3)c2)cc1` [TCMDC-135985]: -30%; for `COc1ccc(CN2CCCN(Cc3cccc(C(=O)Nc4ccc(C(C)(C)C)cc4)c3)CC2)cc1` [TCMDC-135986]: 5.59%.
Still for that read-out and setting: for `CCOc1ccc(NC(=O)c2cccc(CN3CCCN(Cc4cccc(O)c4)CC3)c2)cc1` [TCMDC-135987] the value was -5%; for `CCc1ccc(NC(=O)c2cccc(CN3CCCN(CC4CCCCC4)CC3)c2)cc1` [TCMDC-135988], -39%; for `Cc1cccc2nc(-c3cccc(-c4cccc(NC(=O)Cc5ccc[n+]([O-])c5)c4)c3)[nH]c12` [TCMDC-136992], 25%.
`Cc1cccc2nc(-c3cccc(-c4ccc(NC(=O)Cc5ccc[n+]([O-])c5)cc4)c3)[nH]c12` [TCMDC-136993]: the “% Inhibition” value is -16%.
With `Cc1nc(C)c(CC(=O)Nc2cccc(-c3cccc(-c4nc5ccc(C(F)(F)F)cc5[nH]4)c3)c2)s1` [TCMDC-136995], the “% Inhibition” value is 4.51%.
Take `Cc1nc(C)c(CC(=O)Nc2ccc(-c3cccc(-c4nc5ccc(C(F)(F)F)cc5[nH]4)c3)cc2)s1` [TCMDC-136996]: the “% Inhibition” value is listed as -50%.
On the same count and under the same terms, the same measure for `COc1cc(Cc2cnc(N)nc2N)c2c(c1OC)OC(C)(C)C=C2` [TCMDC-138038]: -2.79%; for `C=CCc1cc(Cc2cnc(N)nc2N)cc(CCC)c1OC` [TCMDC-138039]: 23%; for `COc1cc(Cc2cnc(N)nc2N)cc(OCCCC#N)c1OC` [TCMDC-138040]: -4.21%.
For the compound `COC(=O)CCCCOc1cc(Cc2cnc(N)nc2N)cc(OC)c1OC` [TCMDC-138041], the “% Inhibition” value is on record as 2%.
On the same count and under the same terms, for `C=CCOc1cc(Cc2cnc(N)nc2N)cc(OC)c1OC` [TCMDC-138042] the value was -4%; for `CNc1c2c(nc3ccc(NC(=O)CCCCCCc4ccccc4)cc13)CCCC2` [TCMDC-139066], 79%; for `CO/C(=C\C=C\c1cc2cc(Cl)c(Cl)cc2[nH]1)C(=O)NC1CC2CCCC(C1)N2C` (stereo not drawn) [TCMDC-139067], 19%.
Turning to `O=C(Nc1ccc(CN2CCC(c3c[nH]c4ccc(O)cc34)CC2)cc1)c1ccc(-c2ccccc2)cc1` [TCMDC-139068], the “% Inhibition” value is -139%.
On the same count and under the same terms, for `COc1ccc2[nH]cc(C3CCN(Cc4ccc(NC(=O)c5ccc(-c6ccccc6)cc5)cc4)CC3)c2c1` [TCMDC-139069] the value was 8%; for `Nc1ccnc2ccc(NC(=O)CCCCCc3ccccc3)cc12` [TCMDC-139070], 2%.
On the same count and under the same terms, for `O=C(/C=C/c1ccc(Cl)c(Cl)c1)N1CCC(CCN2CCC(c3c[nH]c4ccncc34)CC2)CC1` [TCMDC-140075] the value was 91%.
Still for that read-out and setting: the same measure for `Cc1cc(NC(=O)Nc2ccc3nc(C)oc3c2)c2cc(Cl)ccc2n1` [TCMDC-140076]: 38%; for `O=C(NCCCN1CCN(c2cccc(Cl)c2)CC1)c1ccc(-c2nc3cc(Cl)c(Cl)cc3[nH]2)cc1` [TCMDC-140077]: 1.64%; for `COc1cc(C(=O)NC2CCN(Cc3ccccc3)CC2)ccc1-c1nc2cc(Cl)c(Cl)cc2[nH]1` [TCMDC-140078]: -56%.
Consider `COc1cc(C(=O)NCCCN2CCN(c3cc(Cl)ccc3OC)CC2)ccc1-c1nc2cc(Cl)c(Cl)cc2[nH]1` [TCMDC-140079], for which the “% Inhibition” value is 4.42%.
Turning to `COc1ccc2nccc([C@@H](O)CN3CCC(NCc4ccc5scnc5c4)CC3)c2c1` [TCMDC-141081], the “% Inhibition” value was determined as 10%.
The same measure, in the same setting: for `CNC(=O)c1cc(NCCCNCc2ccc(Cl)c(C(F)(F)F)c2)nc2ccccc12` [TCMDC-141082] the value was 73%.
On to `COc1ccc2nccc([C@@H](O)CN3CCC(NCc4nc5c(OCc6ccccc6)cccc5[nH]4)CC3)c2c1` [TCMDC-141083], for which the “% Inhibition” value stood at 34%.

The assay is the same for the next values; noted with them: Plasmodium falciparum; P. falciparum gametocytes, 5 μM single concentration, 48 h, decrease of ATP level (S1 Table).
As usually defined, the inhibition is the relative decrease from the control value, in per cent. In the case of `COC(=O)c1cccc(CNCc2cccc(-c3cccc(-c4nc5cc(F)ccc5[nH]4)c3)c2)c1` [TCMDC-132960], the inhibition at 5 µM is 6%.
On the same count and under the same terms, for `COC(=O)c1cccc(CNCc2cccc(-c3cccc(-c4nc5ccccc5[nH]4)c3)c2)c1` [TCMDC-132961] the value was 33%; for `c1ccc(-n2ncc(CNCc3ccc(-c4ccc(-c5nc6ccccc6[nH]5)s4)cc3)n2)cc1` [TCMDC-132962], 1%; for `Cc1cccc2nc(-c3cccc(-c4cccc(CNCc5cnn(-c6ccccc6)n5)c4)c3)[nH]c12` [TCMDC-132963], 8%.
For `FC(F)(F)c1ccc2[nH]c(-c3cccc(-c4ccc(CNCc5cnn(-c6ccccc6)n5)cc4)c3)nc2c1` [TCMDC-132964], the inhibition at 5 µM came to 25%.
On to `Cc1nc(C)c(CC(=O)Nc2ccc(-c3ccc(-c4nc5cc(C(F)(F)F)ccc5[nH]4)s3)cc2)s1` [TCMDC-136994], for which the inhibition at 5 µM is 7%.

The same assay, now with this note: Plasmodium falciparum; gametocytes, primary screen at 5 μM (S9 Table, CSA analogs).
Take `c1ccc2[nH]c(-c3ccc(-c4ccc(CNC5CC5)cc4)s3)nc2c1` [TCMDC-132675]: the inhibition at 5 µM is -17.6%.
For `CN(C)CCNCc1ccc(-c2ccc(-c3nc4ccccc4[nH]3)s2)cc1` [TCMDC-132683], the inhibition at 5 µM worked out at 58.1%.
Same read-out and setting: for `CNCCNCc1ccc(-c2ccc(-c3nc4ccccc4[nH]3)s2)cc1` [TCMDC-132824] the value was 82.1%; for `CC(C)CN(C)Cc1ccc(-c2ccc(-c3nc4ccccc4[nH]3)s2)cc1` [TCMDC-136786], -17.4%.

Still in this assay, the particulars now being: gametocytes, primary screen at 5 μM (S10 Table, MCSI analogs).
On to `Cc1cccc2nc(-c3ccc(-c4cccc(CNCc5ccc(CN)cc5)c4)s3)[nH]c12.O=C(O)C(F)(F)F` [TCMDC-132812], for which the “%_Inh” value worked out at 115.306%.
Still for that read-out and setting: for `Cc1cccc2nc(-c3ccc(-c4ccc(CN5CCN(C6CCN(C)CC6)CC5)cc4)s3)[nH]c12` [TCMDC-133866] the value was 106.989%.
